Laboratory results from paper PMC8957989, “Binding Affinity Characterization of Four Antennae-Enriched Odorant-Binding Proteins From Harmonia axyridis (Coleoptera: Coccinellidae)” (Frontiers in Physiology, 2022).
Where two headings read alike, the source gives them in different places.

Legend:
[1] = molecular target: T1, HaxyOBP15 (Harmonia axyridis, UniProt A0A8K1AM29); assay: Competitive fluorescence binding assay (1-NPN probe); conditions: for Ki: Ki = [IC50]/(1 + [1-NPN]/K1-NPN)
Description: (§1) The positive plasmid was then transformed into BL21 (DE3) cells for the expression of recombinant proteins, and proteins induced with 0.5 mmol/L isopropyl β-D-1-thiogalactopyranoside (IPTG) for 4 h at 37°C (HaxyOBP3) or 16 h at 15°C (HaxyOBP5, 12, and 15). […] Inclusion bodies were denatured by 8 M urea.
(§2) Protein purification was performed with His-Tag Purification Resin column (Genscript Biology Company, Nanjing, Jiangsu, China) and purified by gradient imidazole buffer (20, 50, 100, 250, and 500 mmol·L^−1). The purity and size of proteins were detected by SDS-PAGE, and concentrations of proteins were measured with bicinchoninic acid (BCA) Protein Assay Kit (ThermoFisher Scientific-Life Technologies, Carlsbad, CA, United States).
(§3) A Cary Eclipse Fluorescence Spectrophotometer (Agilent Technologies, United States) was used to determine the results of the binding assay. N-phenyl-1-naphthylamine (1-NPN) for HaxyOBP15 and 4,4′-Dianilino-1,1′-binaphthyl-5,5′-disulfonic acid dipotassium salt (bis-ANS) for HaxyOBP3, 5, and 12 were chosen as the fluorescent probe.

[2] = molecular target: HaxyOBP5 (Harmonia axyridis, UniProt A0A8J9RUK3); assay: Competitive fluorescence binding assay (bis-ANS probe); conditions: for Ki: Ki = [IC50]/(1 + [bis-ANS]/Kbis-ANS)
Sequence of HaxyOBP5 (A0A8J9RUK3 entry or part of it): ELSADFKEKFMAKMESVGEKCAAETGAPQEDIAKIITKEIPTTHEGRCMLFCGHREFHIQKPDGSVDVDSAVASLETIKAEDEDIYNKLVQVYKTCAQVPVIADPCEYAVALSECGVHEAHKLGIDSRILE
Description: as §1, §2, §3

[3] = molecular target: HaxyOBP12 (Harmonia axyridis, UniProt A0A8K1AMY0); assay: as above; conditions: recombinant protein and bis-ANS at 2 μM, Tris-HCl 50 mM pH 7.4; for Ki: Ki = [IC50]/(1 + [bis-ANS]/Kbis-ANS)
Sequence of HaxyOBP12 (A0A8K1AMY0 entry or part of it): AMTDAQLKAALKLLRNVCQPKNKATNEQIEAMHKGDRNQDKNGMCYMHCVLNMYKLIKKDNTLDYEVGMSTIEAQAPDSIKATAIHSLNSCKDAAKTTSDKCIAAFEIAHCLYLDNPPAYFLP
Description: as §1, §2, §3

[4] = molecular target: HaxyOBP3 (Harmonia axyridis, UniProt A0A8K1AM44); assay: as above; conditions: recombinant protein and bis-ANS at 2 μM, Tris-HCl 50 mM pH 7.4; for Ki: Ki = [IC50]/(1 + [bis-ANS]/Kbis-ANS)
Sequence of HaxyOBP3 (A0A8K1AM44 entry or part of it): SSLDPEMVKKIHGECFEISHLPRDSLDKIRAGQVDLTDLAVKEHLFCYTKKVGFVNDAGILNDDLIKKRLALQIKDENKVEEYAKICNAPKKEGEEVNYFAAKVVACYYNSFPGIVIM
Description: as §1, §2, §3

[5] = molecular target: T1, HaxyOBP15; assay: Fluorescent probe binding (titration of protein with probe); conditions: probe titrated to 2-16 μM, Tris-HCl 50 mM pH 7.4; read-out: dissociation constant of probe with HaxyOBP15
Description: A Cary Eclipse Fluorescence Spectrophotometer (Agilent Technologies, United States) was used to determine the results of the binding assay. N-phenyl-1-naphthylamine (1-NPN) for HaxyOBP15 and 4,4′-Dianilino-1,1′-binaphthyl-5,5′-disulfonic acid dipotassium salt (bis-ANS) for HaxyOBP3, 5, and 12 were chosen as the fluorescent probe. The excitation wavelength was 337 nm of 1-NPN and 295 nm of bis-ANS, and the emission spectrum was recorded between 350 and 500 nm for 1-NPN and between 300 and 550 nm for bis-ANS. The recombinant proteins prepared in Tris–HCl (50 mM, pH 7.4) was titrated with aliquots of 1 mM 1-NPN or bis-ANS to final concentrations ranging from 2 to 16 μM to measure the binding affinity. To further measure the binding affinity of ligands to HaxyOBPs, proteins and fluorescent probe at 2 μM were titrated with aliquots of 1 mM odorants. The binding constant (K1-NPN/bis-ANS) of 1-NPN or bis-ANS to HaxyOBPs was calculated by GraphPad Prism 5 software (GraphPad Software Inc.) with the equation Ki = [IC50]/(1 + [1-NPN]/K1-NPN) or [IC50]/(1 + [bis-ANS]/Kbis-ANS), where [1-NPN]/[bis-ANS] is the free concentration of 1-NPN/bis-ANS, and K1-NPN/Kbis-ANS is the dissociation constant of the protein/1-NPN (bis-ANS).

[6] = HaxyOBP5 Ki, recombinant protein and bis-ANS at 2 μM, Tris-HCl 50 mM pH 7.4
[7] = recombinant protein and 1-NPN at 2 μM, Tris-HCl 50 mM pH 7.4
[8] = recombinant protein and 1-NPN at 2 μM, Tris-HCl 50 mM pH 7.4, read-out: HaxyOBP15 IC50

T1 sequence (A0A8K1AM29 entry or part of it): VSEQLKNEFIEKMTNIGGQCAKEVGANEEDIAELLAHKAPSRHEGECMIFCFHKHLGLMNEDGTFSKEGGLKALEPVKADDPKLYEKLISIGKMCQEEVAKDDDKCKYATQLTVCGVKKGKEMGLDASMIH

Structure (SMILES) | IC50 [1] [µM] | Ki [2, 6] [µM] | Ki [1, 7] [µM] | IC50 [1, 8] [µM] | further results
CC(=O)/C=C/C1C(C)=CCCC1(C)C (stereo not drawn) [α-Ionone] | 12 ± 0.56 | – | – | – | –
COC(=O)c1ccccc1O [Methyl salicylate] | – | 11.7 | – | – | Ki ([2]; recombinant protein and bis-ANS at 2 μM, Tris-HCl 50 mM pH 7.4, read-out: HaxyOBP5 Ki): 18.1 ± 1.33 µM; IC50 ([2]; recombinant protein and bis-ANS at 2 μM, Tris-HCl 50 mM pH 7.4, read-out: HaxyOBP5 IC50): 26.4 ± 1.96 µM
CC(=O)OC/C=C(\C)CCC=C(C)C [Geranyl acetate] | – | – | 23.4 ± 3.04 | 30.3 ± 3.58 | –
COc1ccc(C=O)cc1 [p-Anisaldehyde] | – | 13.4 ± 0.67 | – | – | IC50 [2]: 19.9 ± 0.7 µM; IC50 [3]: 25.5 ± 1.99 µM; Ki [3]: 16.1 ± 1.21 µM; IC50 [4]: 34.1 ± 1.06 µM; Ki [4]: 24.4 ± 0.37 µM
c1ccc(Nc2cccc3ccccc23)cc1 [1-NPN, N-phenyl-1-naphthylamine] | – | – | – | – | Kd [5]: 5.07 ± 0.31 µM
C=CC(C)(CCC=C(C)C)OC(C)=O (stereo not drawn) [Linalyl acetate] | 40 ± 2.91 | – | – | – | –
CCCCCCCCC=O [Nonyl aldehyde] | – | – | 29.6 ± 1.86 | 38.5 ± 2.03 | –
CC(=O)CCC1=C(C)CCCC1(C)C [Dihydro-β-ionone] | – | – | 24 ± 2.65 | 30.9 ± 3.01 | –
CC(=O)/C=C/C1=C(C)CCCC1(C)C [β-Ionone] | 6.99 ± 0.21 | 11.7 ± 0.86 | – | – | IC50 [2]: 17.8 ± 1.52 µM; IC50 [3]: 24 ± 1.56 µM; Ki [3]: 15.2 ± 1.06 µM; IC50 [4]: 25.9 ± 2.85 µM; Ki [4]: 18.8 ± 2.14 µM
C=CC(=C)CC/C=C(\C)CCC=C(C)C [(E)-β-Farnesene] | – | – | 4.33 ± 0.4 | 5.81 ± 0.46 | –
